Reference: patent publication US5462935A, “Cephalosporin compounds” (Lucky Limited, priority 1990, dated 1995)
Values after ≈ are worked out from the molar mass of the structure shown.

Legend:
[1] = acute toxicity test, intravenous; settings: mouse, in vivo, ICR mice, observed for 14 days
Source text: The results are shown in the last row of Table 2.

[2] = system: Enterobacter aerogenes ATCC 29751; assay: minimal inhibitory concentration, two-fold agar dilution; assay type: cell-based; settings: Klebsiella aerogenes, ATCC29751, 20 h
Protocol: (§1) These NIC values were taken by employing a two-fold dilution method: that is, two-fold serial dilutions of each of the test compounds were made and dispersed in a Muller-Hinton agar medium; 2 μl of the standard test strain which had the 10^7 CFU (Colony Forming Unit) per ml was inoculated on the medium; and these were incubated at 37° C. for 20 hours.

[3] = system: Pseudomonas aerugionsa ATCC 27853; assay: as above; assay type: cell-based; settings: ATCC27853, Muller-Hinton agar, 37° C., 20 hours
Protocol: as §1

[4] = system: Escherichia coli ATCC 10536; assay: as above; assay type: cell-based; settings: ATCC10536, Muller-Hinton agar, 37° C., 20 hours
Protocol: as §1

[5] = system: Klebsiella pneumoniae ATCC 10031; assay: as above; assay type: cell-based; settings: ATCC10031, Muller-Hinton agar, 37° C., 20 hours
Protocol: as §1

[6] = system: Pseudomonas aerugionsa ATCC 10145; assay: as above; assay type: cell-based; settings: ATCC10145, Muller-Hinton agar, 37° C., 20 hours
Protocol: as §1

[7] = system: Staphylococcus aureus ATCC 6638p; assay: as above; assay type: cell-based; settings: ATCC6638P, 20 h
Protocol: as §1

[8] = system: ATCC 12228; assay: as above; assay type: cell-based; settings: Staphylococcus faecalis, ATCC12228, 20 h
Protocol: as §1

[9] = system: Morganella morganii ATCC 8076h; assay: as above; assay type: cell-based; settings: ATCC8076H, 20 h
Protocol: as §1

[10] = system: Escherichia coli ATCC 25922; assay: as above; assay type: cell-based; settings: ATCC25922, Muller-Hinton agar, 37° C., 20 hours
Protocol: as §1

[11] = system: Proteus mirabilis ATCC 25933; assay: as above; assay type: cell-based; settings: ATCC25933, Muller-Hinton agar, 37° C., 20 hours
Protocol: as §1

[12] = system: Staphylococcus epidermidis ATCC 10537; assay: as above; assay type: cell-based; settings: ATCC10537, Muller-Hinton agar, 37° C., 20 hours
Protocol: as §1

[13] = system: Acinetobacter calcoaceticus ATCC 15473; assay: as above; assay type: cell-based; settings: ATCC15473, Muller-Hinton agar, 37° C., 20 hours
Protocol: as §1

[14] = system: Salmonella typhimurium ATCC 14028; assay: as above; assay type: cell-based; settings: Salmonella enterica, Muller-Hinton agar, 37° C., 20 hours
Protocol: as §1

[15] = system: Shigella flexneri ATCC 11836; assay: as above; assay type: cell-based; settings: ATCC11836, Muller-Hinton agar, 37° C., 20 hours
Protocol: as §1

[16] = system: Shigella sonnei ATCC 11060; assay: as above; assay type: cell-based; settings: ATCC11060, Muller-Hinton agar, 37° C., 20 hours
Protocol: as §1

[17] = system: Citrobacter freundii ATCC 8090; assay: as above; assay type: cell-based; settings: ATCC8090, Muller-Hinton agar, 37° C., 20 hours
Protocol: as §1

[18] = system: Enterobacter cloacae ATCC 27508; assay: as above; assay type: cell-based; settings: ATCC27508, Muller-Hinton agar, 37° C., 20 hours
Protocol: as §1

[19] = system: Proteus vulgaris ATCC 6059; assay: as above; assay type: cell-based; settings: ATCC6059, Muller-Hinton agar, 37° C., 20 hours
Protocol: as §1

[20] = system: Serratia marcescens ATCC 27117; assay: as above; assay type: cell-based; settings: ATCC27117, Muller-Hinton agar, 37° C., 20 hours
Protocol: as §1

[21] = system: Providencia rettgeri ATCC 9250; assay: as above; assay type: cell-based; settings: ATCC9250, Muller-Hinton agar, 37° C., 20 hours
Protocol: as §1

[22] = system: Streptococcus faecalis ATCC 29212; assay: as above; assay type: cell-based; settings: Enterococcus faecalis, ATCC29212, Muller-Hinton agar, 37° C., 20 hours
Protocol: as §1

[23] = system: Micrococcus luteus ATCC 9341; assay: as above; assay type: cell-based; settings: ATCC9341, Muller-Hinton agar, 37° C., 20 hours
Protocol: as §1

[24] = system: Bacillus cereus ATCC 11778; assay: as above; assay type: cell-based; settings: Bacillus cereus, ATCC11778, 20 h
Protocol: as §1

[25] = system: Bacillus megaterium ATCC 9885; assay: as above; assay type: cell-based; settings: Priestia megaterium, ATCC9885, 20 h
Protocol: as §1

[26] = system: Pseudomonas aeruginosa ATCC 25619; assay: as above; assay type: cell-based; settings: ATCC25619, Muller-Hinton agar, 37° C., 20 hours
Protocol: as §1

| Structure (SMILES) | LD50 at 336 h [1] [mg/kg] | MIC [2] [µg/mL] | MIC [3] [µg/mL] | MIC [4] [µg/mL] | MIC [5] [µg/mL] | MIC [6] [µg/mL] | MIC [7] [µg/mL] | MIC [8] [µg/mL] | MIC [9] [µg/mL] | MIC [10] [µg/mL] | MIC [11] [µg/mL] | MIC [12] [µg/mL] | MIC [13] [µg/mL] | MIC [14] [µg/mL] | MIC [15] [µg/mL] | MIC [16] [µg/mL] | MIC [17] [µg/mL] | MIC [18] [µg/mL] | MIC [19] [µg/mL] | MIC [20] [µg/mL] | also measured |
| --- | --- | --- | --- | --- | --- | --- | --- | --- | --- | --- | --- | --- | --- | --- | --- | --- | --- | --- | --- | --- | --- |
| CC[n+]1c(N)cc(N)nc1SCC1=C(C(=O)[O-])N2C(=O)C(NC(=O)/C(=N\O[C@H](C)C(=O)O)c3csc(N)n3)[C@H]2SC1 (stereo partly drawn) [I-R-3, 7-[(Z)-2-(2-aminothiazol-4-yl)-2-[(R)-1-carboxyeth-1-oxyimino]acetamido]-3-[(4,6-diamino-1-ethylpyrimidinium-2-yl)thiomethyl]-3-cephem-4-carboxylate] | > 3000 | 0.5 (≈ 0.802 µM) | 1 (≈ 1.6 µM) | 0.063 (≈ 0.101 µM) | 0.031 (≈ 0.0497 µM) | 2 (≈ 3.21 µM) | 2 (≈ 3.21 µM) | 1 (≈ 1.6 µM) | ≤ 0.008 | 0.063 (≈ 0.101 µM) | 0.031 (≈ 0.0497 µM) | 2 (≈ 3.21 µM) | 4 (≈ 6.41 µM) | 0.13 (≈ 0.208 µM) | 0.031 (≈ 0.0497 µM) | 0.031 (≈ 0.0497 µM) | 0.063 (≈ 0.101 µM) | 0.016 (≈ 0.0257 µM) | 0.031 (≈ 0.0497 µM) | 0.063 (≈ 0.101 µM) | MIC [21]: ≤ 0.008 µg/mL; MIC [22]: > 128 µg/mL; MIC [23]: 0.25 µg/mL (≈ 0.401 µM); MIC [24]: 128 µg/mL (≈ 205 µM); MIC [25]: 1 µg/mL (≈ 1.6 µM); MIC [26]: 1 µg/mL (≈ 1.6 µM) |
| CCC[n+]1c(N)cc(N)nc1SCC1=C(C(=O)[O-])N2C(=O)C(NC(=O)/C(=N\O[C@H](C)C(=O)O)c3csc(N)n3)[C@H]2SC1 (stereo partly drawn) [I-R-4, 7-[(Z)-2-(2-aminothiazol-4-yl)-2-[(R)-1-carboxyeth-1-oxyimino]acetamido]-3-[(4,6-diamino-1-propylpyrimidinium-2-yl)thiomethyl]-3-cephem-4-carboxylate] | > 3000 | 1 (≈ 1.57 µM) | 2 (≈ 3.14 µM) | 0.063 (≈ 0.0988 µM) | 0.063 (≈ 0.0988 µM) | 4 (≈ 6.27 µM) | 2 (≈ 3.14 µM) | 1 (≈ 1.57 µM) | ≤ 0.008 | 0.063 (≈ 0.0988 µM) | 0.063 (≈ 0.0988 µM) | 2 (≈ 3.14 µM) | 8 (≈ 12.5 µM) | 0.25 (≈ 0.392 µM) | 0.031 (≈ 0.0486 µM) | 0.063 (≈ 0.0988 µM) | 0.063 (≈ 0.0988 µM) | 0.016 (≈ 0.0251 µM) | 0.063 (≈ 0.0988 µM) | 0.13 (≈ 0.204 µM) | MIC [21]: ≤ 0.008 µg/mL; MIC [22]: > 128 µg/mL; MIC [23]: 0.5 µg/mL (≈ 0.784 µM); MIC [24]: 64 µg/mL (≈ 100 µM); MIC [25]: 0.5 µg/mL (≈ 0.784 µM); MIC [26]: 1 µg/mL (≈ 1.57 µM) |
| C[C@@H](O/N=C(\C(=O)NC1C(=O)N2C(C(=O)[O-])=C(CSc3nc(N)cc(N)[n+]3-c3ccccc3)CSC12)c1csc(N)n1)C(=O)O (stereo partly drawn) [I-R-5, 7-[(Z)-2-(2-aminothiazol-4-yl)-2-[(R)-1-carboxyeth-1-oxyimino]acetamido]-3-[(4,6-diamino-1'-phenylpyrimidinium-2-yl)thiomethyl]-3-cephem-4-carboxylate] | > 2000 | 1 (≈ 1.49 µM) | 4 (≈ 5.95 µM) | 0.13 (≈ 0.194 µM) | 0.063 (≈ 0.0938 µM) | 8 (≈ 11.9 µM) | 4 (≈ 5.95 µM) | 2 (≈ 2.98 µM) | ≤ 0.008 | 0.25 (≈ 0.372 µM) | 0.063 (≈ 0.0938 µM) | 2 (≈ 2.98 µM) | 16 (≈ 23.8 µM) | 0.5 (≈ 0.744 µM) | 0.063 (≈ 0.0938 µM) | 0.25 (≈ 0.372 µM) | 0.13 (≈ 0.194 µM) | 0.031 (≈ 0.0461 µM) | 0.063 (≈ 0.0938 µM) | 0.5 (≈ 0.744 µM) | MIC [21]: ≤ 0.008 µg/mL; MIC [22]: > 128 µg/mL; MIC [23]: 0.25 µg/mL (≈ 0.372 µM); MIC [24]: 64 µg/mL (≈ 95.3 µM); MIC [25]: 0.5 µg/mL (≈ 0.744 µM); MIC [26]: 2 µg/mL (≈ 2.98 µM) |
| Cc1c(N)nc(SCC2=C(C(=O)[O-])N3C(=O)C(NC(=O)/C(=N\O[C@H](C)C(=O)O)c4csc(N)n4)[C@H]3SC2)[n+](N)c1N (stereo partly drawn) [I-R-7, 7-[(Z)-2-(2-aminothiazol-4-yl)-2-[(R)-1-carboxyeth-1-oxyimino]acetamido]-3-[(5-methyl-1,4,6-triaminopyrimidinium-2-yl)thiomethyl]-3-cephem-4-carboxylate] | > 5000 | 2 (≈ 3.2 µM) | 2 (≈ 3.2 µM) | 0.063 (≈ 0.101 µM) | 0.063 (≈ 0.101 µM) | 2 (≈ 3.2 µM) | 4 (≈ 6.4 µM) | 2 (≈ 3.2 µM) | ≤ 0.008 | 0.063 (≈ 0.101 µM) | 0.031 (≈ 0.0496 µM) | 2 (≈ 3.2 µM) | 4 (≈ 6.4 µM) | 0.25 (≈ 0.4 µM) | 0.031 (≈ 0.0496 µM) | 0.063 (≈ 0.101 µM) | 0.13 (≈ 0.208 µM) | 0.063 (≈ 0.101 µM) | 0.063 (≈ 0.101 µM) | 0.13 (≈ 0.208 µM) | MIC [21]: ≤ 0.008 µg/mL; MIC [22]: > 128 µg/mL; MIC [23]: 0.5 µg/mL (≈ 0.8 µM); MIC [24]: 128 µg/mL (≈ 205 µM); MIC [25]: 0.5 µg/mL (≈ 0.8 µM); MIC [26]: 2 µg/mL (≈ 3.2 µM) |
| CC[n+]1c(N)cc(N)nc1SCC1=C(C(=O)[O-])N2C(=O)C(NC(=O)/C(=N\O[C@@H](C)C(=O)O)c3csc(N)n3)[C@H]2SC1 (stereo partly drawn) [I-S-3, 7[(Z)-2-(2-aminothiazol-4-yl)-2[(S)-1-carboxyeth-1-oxyimino]acetamido]-3-[(4,6-diamino-1-ethylpyrimidinium-2-yl)thiomethyl]-3-cephem-4-carboxylate] | > 3000 | 1 (≈ 1.6 µM) | 1 (≈ 1.6 µM) | 0.031 (≈ 0.0497 µM) | 0.031 (≈ 0.0497 µM) | 2 (≈ 3.21 µM) | 2 (≈ 3.21 µM) | 1 (≈ 1.6 µM) | ≤ 0.008 | 0.031 (≈ 0.0497 µM) | 0.031 (≈ 0.0497 µM) | 1 (≈ 1.6 µM) | 4 (≈ 6.41 µM) | 0.13 (≈ 0.208 µM) | 0.016 (≈ 0.0257 µM) | 0.063 (≈ 0.101 µM) | 0.031 (≈ 0.0497 µM) | ≤ 0.008 | 0.031 (≈ 0.0497 µM) | 0.063 (≈ 0.101 µM) | MIC [21]: ≤ 0.008 µg/mL; MIC [22]: > 128 µg/mL; MIC [23]: 0.25 µg/mL (≈ 0.401 µM); MIC [24]: 32 µg/mL (≈ 51.3 µM); MIC [25]: 0.25 µg/mL (≈ 0.401 µM); MIC [26]: 1 µg/mL (≈ 1.6 µM) |
